Earlier results in US20160335412A1, “SYSTEMS AND METHODS FOR PREDICTING AND ADJUSTING THE DOSAGE OF MEDICINES IN INDIVIDUAL PATIENTS” (priority 2013, published 2016).

SMILES	'therapeutic range' of plasma concentrations (documented in the literature, lower limit = no response in most patients, upper limit = toxicity in most)	'therapeutic range' of plasma drug concentrations (has been established, treatment of schizophrenia)
Cn1c(=O)c2[nH]cnc2n(C)c1=O [theophylline]	5-10 micrograms per ml plasma	–
Cc1cc2c(s1)Nc1ccccc1N=C2N1CCN(C)CC1 [olanzapine]	–	20 to 80 ng/mL
